Results from patent US8404677B2, “Kinase inhibitors” (Genosco, priority 2009, dated 2013).

How the values were obtained:
[1] = molecular target: SYK (Homo sapiens, UniProt P43405); assay: In vitro kinase inhibition, Ambit Biosciences panel; format: binding; set-up: purchased Ambit Biosciences; details: lower numbers indicate stronger activities
Procedure: (§1) Up to 518 different kinases have been identified in humans. They act on small molecules such as lipids, carbohydrates, amino acids, and nucleotides. To determine the scope of inhibitory effects of a representative compound of Formula (I) on known kinases, Compound 6 was tested against 104 commercially available kinases (Ambit Biosciences™) in vitro. 104 kinases included ABL1(E255K)-phosphorylated, ABL1(T315I)-phosphorylated, ABL1-phosphorylated, ACVR1B, ADCK3, AKT1, AKT2, ALK, AURKA, AURKB, AXL, BMPR2, BRAF, BRAF(V600E), BTK, CDK11, CDK2, CDK3, CDK7, CDK9, CHEK1, CSF1R, CSNK1D, CSNK1G2, DCAMKL1, DYRK1B, EGFR, EGFR(L858R), EPHA2, ERBB2, ERBB4, ERK1, FAK, FGFR2, FGFR3, FLT1, FLT3, FLT4, GSK3B, IGF1R, IKK-α, IKK-β, INSR, JAK2(JH1domain-catalytic), JAK3(JH1domain-catalytic), JNK1, JNK2, JNK3, KIT, KIT(D816V), KIT(V559D,T670I), LKB1, LRRK2, LRRK2(G2019S), MAP3K4, MAPKAPK2, MARK3, MEK1, MEK2, MET, MKNK1, MKNK2, MLK1, MTOR, p38-alpha, p38-beta, PAK1, PAK2, PAK4, PCTK1, PDGFRA, PDGFRB, PDPK1, PIK3C2B, PIK3CA, PIK3CG, PIM1, PIM2, PIM3, PKAC-alpha, PLK1, PLK3, PLK4, PRKCE, PYK2, RAFT, RET, RIOK2, ROCK2, RSK2, SNARK, SRC, SRPK3, SYK, TAK1, TGFBR1, TIE2, TRKA, TSSK1B, TYK2(JH1domain-catalytic), ULK2, VEGFR2, YANK3 and ZAP70.
(§2) Inhibition activity of Compound 6 was reported as percent control where lower numbers indicate stronger activities. […]

[2] = molecular target: PYK2 (Homo sapiens, UniProt Q14289); assay: as above; format: binding; set-up: purchased Ambit Biosciences; details: lower numbers indicate stronger activities
Chain of PYK2 (Q14289 whole entry): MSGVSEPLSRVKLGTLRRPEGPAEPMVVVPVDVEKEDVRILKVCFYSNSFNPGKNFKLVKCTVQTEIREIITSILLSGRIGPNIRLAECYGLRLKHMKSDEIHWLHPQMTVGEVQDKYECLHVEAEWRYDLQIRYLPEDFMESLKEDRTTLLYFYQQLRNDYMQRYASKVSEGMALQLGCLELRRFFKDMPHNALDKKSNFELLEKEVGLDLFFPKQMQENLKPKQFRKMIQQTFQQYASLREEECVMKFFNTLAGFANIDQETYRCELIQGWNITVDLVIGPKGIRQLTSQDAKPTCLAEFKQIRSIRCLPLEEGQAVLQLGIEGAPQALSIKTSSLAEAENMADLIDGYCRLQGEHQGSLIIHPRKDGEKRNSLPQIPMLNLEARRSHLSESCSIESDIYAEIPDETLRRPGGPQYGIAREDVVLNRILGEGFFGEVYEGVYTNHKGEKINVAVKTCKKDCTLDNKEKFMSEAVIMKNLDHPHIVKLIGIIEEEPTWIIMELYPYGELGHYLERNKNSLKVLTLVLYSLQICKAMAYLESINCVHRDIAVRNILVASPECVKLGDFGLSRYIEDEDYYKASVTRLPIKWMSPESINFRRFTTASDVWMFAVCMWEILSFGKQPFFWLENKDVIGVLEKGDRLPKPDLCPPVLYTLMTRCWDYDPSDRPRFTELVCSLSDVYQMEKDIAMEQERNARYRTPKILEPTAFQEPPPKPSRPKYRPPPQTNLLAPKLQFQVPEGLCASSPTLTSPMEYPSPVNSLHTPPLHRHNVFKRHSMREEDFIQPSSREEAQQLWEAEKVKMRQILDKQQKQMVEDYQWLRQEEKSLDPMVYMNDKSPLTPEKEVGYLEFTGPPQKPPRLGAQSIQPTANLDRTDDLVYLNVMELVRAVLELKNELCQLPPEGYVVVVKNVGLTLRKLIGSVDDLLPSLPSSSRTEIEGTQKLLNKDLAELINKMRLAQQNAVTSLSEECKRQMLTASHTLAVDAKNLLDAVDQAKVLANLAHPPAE
Procedure: as §1, §2

[3] = system: SK-MEL-5; assay: cells; format: cell-based; details: SK-MEL-5 (Melanoma)
[4] = system: HCT-15; assay: cells; format: cell-based; details: HCT-15 (Colon Cancer)
[5] = system: SN12C; assay: cells; format: cell-based; details: SN12C (Renal Cancer)
[6] = system: COLO 205; assay: cells; format: cell-based; details: COLO 205 (Colon Cancer)
[7] = system: OVCAR-3; assay: cells; format: cell-based; details: OVCAR-3 (Ovarian Cancer)
[8] = system: MOLT-4; assay: cells; format: cell-based; details: MOLT-4 (Leukemia)
[9] = system: OVCAR-5; assay: cells; format: cell-based; details: OVCAR-5 (Ovarian Cancer)
[10] = system: HCC-2998; assay: cells; format: cell-based; details: HCC-2998 (Colon Cancer)
[11] = system: DU-145; assay: cells; format: cell-based; details: DU-145 (Prostate Cancer)
[12] = system: UACC-62; assay: cells; format: cell-based; details: UACC-62 (Melanoma)
[13] = system: CCRF-CEM; assay: cells; format: cell-based; details: CCRF-CEM (Leukemia)
[14] = system: U251; assay: cells; format: cell-based; details: U251 (CNS Cancer)
[15] = system: KM12; assay: cells; format: cell-based; details: KM12 (Colon Cancer)
[16] = Homo sapiens, read-out: LC50 (the source's name)

Compound: O=c1[nH]ccc2nc(N3CCC(O)CC3)nc(Nc3cccc(C(F)(F)F)c3)c12 [Compound 6, 2-(4-hydroxypiperidin-1-yl)-4-(3-(trifluoromethyl)phenylamino)pyrido[4,3-d]pyrimidine-5(6H)-one]
- % inhibition (reported as percent control) [1]: 8.4%
- % inhibition (reported as percent control) [2]: 32%
- GI50 ([3]; Homo sapiens): 1.23 µM
- IC50 ([3]; Homo sapiens): 2.14 µM
- CC50 [3, 16]: 5.13 µM
- TGI [3]: 2.51 µM
- TGI [4]: 31.6 µM
- GI50 ([4]; Homo sapiens): 0.537 µM
- IC50 ([4]; Homo sapiens): 0.759 µM
- CC50 [4, 16]: 100 µM
- GI50 ([5]; Homo sapiens): 4.07 µM
- IC50 ([5]; Homo sapiens): 12.9 µM
- CC50 [5, 16]: 100 µM
- TGI [5]: 100 µM
- TGI [6]: 14.5 µM
- GI50 ([6]; Homo sapiens): 3.09 µM
- IC50 ([6]; Homo sapiens): 5.25 µM
- CC50 [6, 16]: 45.7 µM
- GI50 ([7]; Homo sapiens): 1.35 µM
- IC50 ([7]; Homo sapiens): 3.63 µM
- CC50 [7, 16]: 46.8 µM
- TGI [7]: 3.98 µM
- GI50 ([8]; Homo sapiens): 2.24 µM
- IC50 ([8]; Homo sapiens): 3.63 µM
- LC50 ([8]; Homo sapiens): 100 µM
- TGI [8]: 7.76 µM
- GI50 ([9]; Homo sapiens): 28.2 µM
- IC50 ([9]; Homo sapiens): 74.1 µM
- CC50 [9, 16]: 100 µM
- TGI [9]: 93.3 µM
- TGI [10]: 38 µM
- GI50 ([10]; Homo sapiens): 11.2 µM
- IC50 ([10]; Homo sapiens): 25.1 µM
- CC50 [10, 16]: 100 µM
- TGI [11]: 19.5 µM
- GI50 ([11]; Homo sapiens): 1.55 µM
- IC50 ([11]; Homo sapiens): 6.03 µM
- CC50 [11, 16]: 100 µM
- GI50 ([12]; Homo sapiens): 1.82 µM
- IC50 ([12]; Homo sapiens): 3.98 µM
- CC50 [12, 16]: 27.5 µM
- TGI [12]: 6.92 µM
- TGI [13]: 100 µM
- GI50 ([13]; Homo sapiens): 2.09 µM
- IC50 ([13]; Homo sapiens): 4.07 µM
- LC50 ([13]; Homo sapiens): 100 µM
- GI50 ([14]; Homo sapiens, U-251): 6.17 µM
- IC50 ([14]; Homo sapiens, U-251): 11.7 µM
- CC50 ([14]; Homo sapiens, U-251, read-out: LC50 (the source's name)): 100 µM
- TGI [14]: 100 µM
- GI50 ([15]; Homo sapiens): 1.45 µM
- IC50 ([15]; Homo sapiens): 2.69 µM
- CC50 [15, 16]: 24 µM
- TGI [15]: 5.37 µM
